Laboratory results from ChEMBL document CHEMBL5303573, “Mapping human microbiome drug metabolism by gut bacteria and their genes” (Nature, 2019).

Key:
[1] = The drug is tested on Edwardsiella tarda strain: ATCC23685 for biotransformation. The drug concentrations were measured before and after a 12-h incubation by liquid-chromatography-coupled mass spectrometry (LC–MS); conditions: 2 µM
[2] = The drug is tested on Bacteroides dorei strain: DSM17855 for biotransformation. The drug concentrations were measured before and after a 12-h incubation by liquid-chromatography-coupled mass spectrometry (LC–MS); conditions: phocaeicola dorei, 2 µM
[3] = The drug is tested on Blautia hansenii strain: DSM20583 for biotransformation. The drug concentrations were measured before and after a 12-h incubation by liquid-chromatography-coupled mass spectrometry (LC–MS); conditions: 2 µM
[4] = The drug is tested on Bacteroides finegoldii strain: DSM17565 for biotransformation. The drug concentrations were measured before and after a 12-h incubation by liquid-chromatography-coupled mass spectrometry (LC–MS); conditions: 2 µM
[5] = The drug is tested on Escherichia coli strain: BW25113 for biotransformation. The drug concentrations were measured before and after a 12-h incubation by liquid-chromatography-coupled mass spectrometry (LC–MS); conditions: 2 µM
[6] = bacteroides thetaiotaomicron, 12 h, 2 µM
Description: The drug is tested on Bacteroides thetaiotaomicron strain: 3731 for biotransformation. The drug concentrations were measured before and after a 12-h incubation by liquid-chromatography-coupled mass spectrometry (LC–MS)

[7] = The drug is tested on Bacteroides uniformis strain: ATCC8492 for biotransformation. The drug concentrations were measured before and after a 12-h incubation by liquid-chromatography-coupled mass spectrometry (LC–MS); conditions: 2 µM
[8] = The drug is tested on Eubacterium hallii strain: DSM3353 for biotransformation. The drug concentrations were measured before and after a 12-h incubation by liquid-chromatography-coupled mass spectrometry (LC–MS); conditions: anaerobutyricum hallii, 2 µM
[9] = The drug is tested on Clostridium sporogenes strain: ATCC15579 for biotransformation. The drug concentrations were measured before and after a 12-h incubation by liquid-chromatography-coupled mass spectrometry (LC–MS); conditions: 2 µM
[10] = The drug is tested on Bacteroides fragilis strain: HMW615 for biotransformation. The drug concentrations were measured before and after a 12-h incubation by liquid-chromatography-coupled mass spectrometry (LC–MS); conditions: 2 µM
[11] = The drug is tested on Collinsella intestinalis strain: DSM13280 for biotransformation. The drug concentrations were measured before and after a 12-h incubation by liquid-chromatography-coupled mass spectrometry (LC–MS); conditions: 2 µM
[12] = The drug is tested on Clostridium scindens strain: ATCC35704 for biotransformation. The drug concentrations were measured before and after a 12-h incubation by liquid-chromatography-coupled mass spectrometry (LC–MS); conditions: 2 µM
[13] = The drug is tested on Alistipes indistinctus strain: DSM22520 for biotransformation. The drug concentrations were measured before and after a 12-h incubation by liquid-chromatography-coupled mass spectrometry (LC–MS); conditions: 2 µM
[14] = bacteroides stercoris, 12 h, 2 µM
Description: The drug is tested on Bacteroides stercoris strain: ATCC43183 for biotransformation. The drug concentrations were measured before and after a 12-h incubation by liquid-chromatography-coupled mass spectrometry (LC–MS)

[15] = The drug is tested on Clostridium ramosum strain: DSM1402 for biotransformation. The drug concentrations were measured before and after a 12-h incubation by liquid-chromatography-coupled mass spectrometry (LC–MS); conditions: thomasclavelia ramosa, 2 µM
[16] = The drug is tested on Bacteroides vulgatus strain: ATCC8482 for biotransformation. The drug concentrations were measured before and after a 12-h incubation by liquid-chromatography-coupled mass spectrometry (LC–MS); conditions: phocaeicola vulgatus, 2 µM
[17] = The drug is tested on Collinsella aerofaciens strain: ATCC25986 for biotransformation. The drug concentrations were measured before and after a 12-h incubation by liquid-chromatography-coupled mass spectrometry (LC–MS); conditions: 2 µM
[18] = The drug is tested on Anaerococcus hydrogenalis strain: DSM7454 for biotransformation. The drug concentrations were measured before and after a 12-h incubation by liquid-chromatography-coupled mass spectrometry (LC–MS); conditions: 2 µM
[19] = The drug is tested on Odoribacter splanchnicus strain: fecal isolate for biotransformation. The drug concentrations were measured before and after a 12-h incubation by liquid-chromatography-coupled mass spectrometry (LC–MS); conditions: 2 µM
[20] = akkermansia muciniphila, 12 h, 2 µM
Description: The drug is tested on Akkermansia muciniphila strain: ATCC BAA-835 for biotransformation. The drug concentrations were measured before and after a 12-h incubation by liquid-chromatography-coupled mass spectrometry (LC–MS)

Row | SMILES | Bacterial Biotransformation [1] | Bacterial Biotransformation [2] | Bacterial Biotransformation [3] | Bacterial Biotransformation [4] | Bacterial Biotransformation [5] | Bacterial Biotransformation [6] | Bacterial Biotransformation [7] | Bacterial Biotransformation [8] | Bacterial Biotransformation [9] | Bacterial Biotransformation [10] | Bacterial Biotransformation [11] | Bacterial Biotransformation [12] | Bacterial Biotransformation [13] | Bacterial Biotransformation [14] | Bacterial Biotransformation [15] | Bacterial Biotransformation [16] | Bacterial Biotransformation [17] | Bacterial Biotransformation [18] | Bacterial Biotransformation [19] | Bacterial Biotransformation [20]
1 | CC(C)c1nc(N(C)S(C)(=O)=O)nc(-c2ccc(F)cc2)c1/C=C/[C@@H](O)C[C@@H](O)CC(=O)[O-].CC(C)c1nc(N(C)S(C)(=O)=O)nc(-c2ccc(F)cc2)c1/C=C/[C@@H](O)C[C@@H](O)CC(=O)[O-].[Ca+2] [ROSUVASTATIN CALCIUM] | Compound NOT metabolized | Compound NOT metabolized | Compound NOT metabolized | Compound NOT metabolized | Compound NOT metabolized | Compound NOT metabolized | Compound NOT metabolized | Compound NOT metabolized | Compound NOT metabolized | Compound NOT metabolized | Compound NOT metabolized | Compound NOT metabolized | Compound NOT metabolized | Compound NOT metabolized | Compound NOT metabolized | Compound NOT metabolized | Compound NOT metabolized | Compound NOT metabolized |  | 
2 | CC(C)NCC(O)c1ccc(NS(C)(=O)=O)cc1 (centres undefined) [SOTALOL] | Compound NOT metabolized |  | Compound NOT metabolized | Compound NOT metabolized | Compound NOT metabolized | Compound NOT metabolized | Compound metabolized | Compound NOT metabolized | Compound NOT metabolized | Compound metabolized | Compound NOT metabolized | Compound NOT metabolized | Compound NOT metabolized | Compound NOT metabolized | Compound NOT metabolized | Compound NOT metabolized | Compound NOT metabolized | Compound NOT metabolized | Compound NOT metabolized | Compound NOT metabolized
3 | CCOc1ccccc1OCCN[C@H](C)Cc1ccc(OC)c(S(N)(=O)=O)c1.Cl [TAMSULOSIN HYDROCHLORIDE] | Compound NOT metabolized | Compound NOT metabolized | Compound NOT metabolized | Compound NOT metabolized | Compound NOT metabolized | Compound NOT metabolized | Compound NOT metabolized | Compound NOT metabolized |  | Compound NOT metabolized | Compound NOT metabolized | Compound NOT metabolized | Compound NOT metabolized | Compound NOT metabolized | Compound NOT metabolized | Compound NOT metabolized | Compound NOT metabolized | Compound NOT metabolized | Compound NOT metabolized | Compound NOT metabolized
4 | CN1[C@@H]2CC[C@H]1C[C@@H](OC(=O)c1c[nH]c3ccccc13)C2 [TROPISETRON] | Compound NOT metabolized | Compound NOT metabolized | Compound NOT metabolized | Compound NOT metabolized | Compound NOT metabolized | Compound NOT metabolized | Compound NOT metabolized | Compound NOT metabolized |  | Compound NOT metabolized | Compound NOT metabolized | Compound NOT metabolized | Compound NOT metabolized | Compound NOT metabolized | Compound NOT metabolized | Compound NOT metabolized | Compound NOT metabolized | Compound NOT metabolized | Compound NOT metabolized | Compound NOT metabolized
5 | CCOC(=O)C1=C[C@]2(CC)CCCN3CCc4c(n1c1ccccc41)[C@@H]32 [VINPOCETINE] | Compound NOT metabolized |  | Compound metabolized | Compound NOT metabolized | Compound NOT metabolized | Compound NOT metabolized |  | Compound NOT metabolized | Compound NOT metabolized | Compound NOT metabolized | Compound NOT metabolized | Compound NOT metabolized | Compound NOT metabolized | Compound NOT metabolized | Compound NOT metabolized | Compound NOT metabolized | Compound NOT metabolized | Compound NOT metabolized | Compound NOT metabolized | 
6 | C[C@@H](c1ncncc1F)[C@](O)(Cn1cncn1)c1ccc(F)cc1F [VORICONAZOLE] | Compound NOT metabolized | Compound metabolized | Compound NOT metabolized | Compound NOT metabolized | Compound NOT metabolized |  | Compound metabolized | Compound NOT metabolized | Compound NOT metabolized | Compound metabolized | Compound NOT metabolized | Compound NOT metabolized | Compound NOT metabolized |  | Compound NOT metabolized | Compound metabolized | Compound NOT metabolized | Compound NOT metabolized | Compound metabolized | Compound NOT metabolized
7 | CCN(C(C)=O)c1cccc(-c2ccnc3c(C#N)cnn23)c1 [ZALEPLON] |  | Compound metabolized | Compound metabolized |  | Compound NOT metabolized |  | Compound metabolized | Compound NOT metabolized | Compound NOT metabolized | Compound metabolized |  | Compound NOT metabolized | Compound NOT metabolized | Compound NOT metabolized | Compound NOT metabolized | Compound metabolized | Compound NOT metabolized | Compound NOT metabolized | Compound NOT metabolized | Compound NOT metabolized
8 | Cc1ccc(-c2nc3ccc(C)cn3c2CC(=O)N(C)C)cc1 [ZOLPIDEM] | Compound NOT metabolized |  | Compound NOT metabolized | Compound NOT metabolized | Compound NOT metabolized | Compound NOT metabolized | Compound NOT metabolized | Compound NOT metabolized | Compound NOT metabolized | Compound NOT metabolized | Compound NOT metabolized |  | Compound NOT metabolized | Compound NOT metabolized | Compound NOT metabolized | Compound NOT metabolized | Compound NOT metabolized | Compound NOT metabolized | Compound NOT metabolized | Compound NOT metabolized
